Measurements taken from patent publication US11959486B2, “Stable liquid formulation of AMG 416 (etelcalcetide)” (AMGEN INC., priority 2013, dated 2024).
Where two headings read alike, the source gives them in different places.

What was measured:
physchem = settings: succinate buffered saline, pH 4.5
Description: In this study, the solubility of AMG 416 in succinate buffered-saline was investigated. […] After briefly vortexing, a clear solution was obtained with a nominal concentration of 400 mg/mL. Because expansion of the solution volume was not determined, the solubility of AMG 416 can be conservatively stated as at least 200 mg/mL. Although the maximal solubility was not determined in this experiment, AMG 416 is soluble in pH 4.5 succinate buffered saline to concentrations of at least 200 mg/mL.

[1] = 5 mg/mL
Description: In this study, the effects of various pharmaceutical excipients on the stability of AMG 416 in liquid formulation were determined. A 10 mg/mL solution of AMG 416 and stock solutions of mannitol, glycine, arginine, NaCl and Na2SO4 at 2× isotonic concentrations were prepared. The pH of the AMG 416 solution and the five excipient solutions and deionized water separately were adjusted to pH 3.5 using HCl/NaOH. 500 μL aliquots of each of the six solutions were added to glass vials and 500 μL of the AMG 416 solution was added to the same vials and mixed well. This was performed in triplicate to provided eighteen sample vials, each containing 5 mg/mL AMG 416 and an isotonic concentration of the excipient (or deionized water). This was repeated with a set of solutions adjusted to pH 4.5, providing a further eighteen sample vials. The samples were incubated and removed for HPLC analysis at relevant time points.

[2] = Stability in buffered solutions at pH 2.25, 2.5, 3.0 and 3.5, RP-HPLC purity and degradants (Example 6)
Description: In this study, the stability of a liquid formulation of AMG 416 under low pH conditions was investigated. Succinate-buffered saline (10 mM, pH 3.5) was prepared by dissolving 59 mg of succinic acid in 45 ml of lab processed (deionized) water and adjusting the pH to 3.5 using 1N HCl and 1N NaOH as needed, and q.s. to 50 ml. In the same way, a 10 mM, pH 3.5 sodium lactate (56 mg/50 mL) buffer solution was prepared.
NaCl (90 mg) was added to one portion and mannitol (500 mg) was added to the other. Each 10 mL portion was split again into two equal 5 mL portions and the pH was adjusted to 2.25 and 3.5, respectively, with 1N HCl and 1N NaOH. In the same way, four 5 mL solutions were prepared using lactate buffer. 1.0 mL of each of the (eight) resulting solutions was added to 3 serum sample vials. In addition, the remaining pH 2.25, succinate-buffered AMG 416 solution containing NaCl was adjusted to pH 2.5 and 0.5 mL aliquots were added to 3 serum sample vials and the remaining pH 3.5 succinate buffered solution with NaCl was adjusted to pH 3.0 and 0.5 mL aliquots were added to 3 serum sample vials.
At each time point (0, 2, 8, 12 and 24 weeks) all 30 samples were retrieved from storage, equilibrated to room temperature (about 25° C.), and a 100 μL aliquot was diluted to 0.5 mg/mL with water for RP-HPLC analysis. […]

With `CC(=O)N[C@H](CSSC[C@H](N)C(=O)O)C(=O)N[C@H](C)C(=O)N[C@H](CCCNC(=N)N)C(=O)N[C@H](CCCNC(=N)N)C(=O)N[C@H](CCCNC(=N)N)C(=O)N[C@H](C)C(=O)N[C@H](CCCNC(=N)N)C(N)=O` [AMG 416, N-acetyl-D-cysteinyl-D-alanyl-D-arginyl-D-arginyl-D-arginyl-D-alanyl-D-arginamide disulfide with L-cysteine] the solubility (physchem) was ≥ 200 mg/mL, the “Extent of degradation at 56 days” value ([1]; Arg, pH 3.5, 2-8° C.) was 0.0% and the “Extent of degradation at 56 days” value ([1]; Arg, pH 3.5, 40° C.) was 28%. For the same compound, the “Extent of degradation at 56 days” value ([1]; Arg, pH 3.5, RT) was 0.6%, the “Predicted extent of degradation After 2 Year Storage at Room Temperature” value (“Predicted extent” for short) ([1]; Arg, pH 3.5, from 2-8° C. data) was 2% and the “Predicted extent” value ([1]; Arg, pH 3.5, from 40° C. data) was 90%. The “Predicted extent” value ([1]; Arg, pH 3.5, from RT data) was 7%, the “Extent of degradation at 56 days” value ([1]; Arg, pH 4.5, 2-8° C.) was 0.5% and the “Extent of degradation at 56 days” value ([1]; Arg, pH 4.5, 40° C.) was 67%. For the same compound, the “Extent of degradation at 56 days” value ([1]; Arg, pH 4.5, RT) was 29%, the “Predicted extent” value ([1]; Arg, pH 4.5, from 2-8° C. data) was 27% and the “Predicted extent” value ([1]; Arg, pH 4.5, from 40° C. data) was >100%. The “Predicted extent” value ([1]; Arg, pH 4.5, from RT data) was >100%, the “Extent of degradation at 56 days” value ([1]; DI Water, pH 3.5, 2-8° C.) was 0.0% and the “Extent of degradation at 56 days” value ([1]; DI Water, pH 3.5, 40° C.) was 8.2%. For the same compound, the “Extent of degradation at 56 days” value ([1]; DI Water, pH 3.5, RT) was 1.0%, the “Predicted extent” value ([1]; DI Water, pH 3.5, from 2-8° C. data) was 1% and the “Predicted extent” value ([1]; DI Water, pH 3.5, from 40° C. data) was 27%. For the same compound, the “Predicted extent” value ([1]; DI Water, pH 3.5, from RT data) was 13%, the “Extent of degradation at 56 days” value ([1]; DI Water, pH 4.5, 2-8° C.) was 0.7% and the “Extent of degradation at 56 days” value ([1]; DI Water, pH 4.5, 40° C.) was 24%. For the same compound, the “Extent of degradation at 56 days” value ([1]; DI Water, pH 4.5, RT) was 3.6%, the “Predicted extent” value ([1]; DI Water, pH 4.5, from 2-8° C. data) was 35% and the “Predicted extent” value ([1]; DI Water, pH 4.5, from 40° C. data) was 77%. The “Predicted extent” value ([1]; DI Water, pH 4.5, from RT data) was 47%, the “Extent of degradation at 56 days” value ([1]; Gly, pH 3.5, 2-8° C.) was 0.0% and the “Extent of degradation at 56 days” value ([1]; Gly, pH 3.5, 40° C.) was 17%. The “Extent of degradation at 56 days” value ([1]; Gly, pH 3.5, RT) was 0.6%, the “Predicted extent” value ([1]; Gly, pH 3.5, from 2-8° C. data) was 3% and the “Predicted extent” value ([1]; Gly, pH 3.5, from 40° C. data) was 55%. For the same compound, the “Predicted extent” value ([1]; Gly, pH 3.5, from RT data) was 8%, the “Extent of degradation at 56 days” value ([1]; Gly, pH 4.5, 2-8° C.) was 0.6% and the “Extent of degradation at 56 days” value ([1]; Gly, pH 4.5, 40° C.) was 28%. For the same compound, the “Extent of degradation at 56 days” value ([1]; Gly, pH 4.5, RT) was 6.4%, the “Predicted extent” value ([1]; Gly, pH 4.5, from 2-8° C. data) was 31% and the “Predicted extent” value ([1]; Gly, pH 4.5, from 40° C. data) was 90%. For the same compound, the “Predicted extent” value ([1]; Gly, pH 4.5, from RT data) was 83%, the “Extent of degradation at 56 days” value ([1]; Mannitol, pH 3.5, 2-8° C.) was 0.0% and the “Extent of degradation at 56 days” value ([1]; Mannitol, pH 3.5, 40° C.) was 4.9%. The “Extent of degradation at 56 days” value ([1]; Mannitol, pH 3.5, RT) was 0.5%, the “Predicted extent” value ([1]; Mannitol, pH 3.5, from 2-8° C. data) was 0% and the “Predicted extent” value ([1]; Mannitol, pH 3.5, from 40° C. data) was 16%. The “Predicted extent” value ([1]; Mannitol, pH 3.5, from RT data) was 7%, the “Extent of degradation at 56 days” value ([1]; Mannitol, pH 4.5, 2-8° C.) was 0.5% and the “Extent of degradation at 56 days” value ([1]; Mannitol, pH 4.5, 40° C.) was 23%. For the same compound, the “Extent of degradation at 56 days” value ([1]; Mannitol, pH 4.5, RT) was 2.2%, the “Predicted extent” value ([1]; Mannitol, pH 4.5, from 2-8° C. data) was 28% and the “Predicted extent” value ([1]; Mannitol, pH 4.5, from 40° C. data) was 75%. The “Predicted extent” value ([1]; Mannitol, pH 4.5, from RT data) was 28%, the “Extent of degradation at 56 days” value ([1]; Na2SO4, pH 3.5, 2-8° C.) was 0.0% and the “Extent of degradation at 56 days” value ([1]; Na2SO4, pH 3.5, 40° C.) was 9.4%. The “Extent of degradation at 56 days” value ([1]; Na2SO4, pH 3.5, RT) was 0.4%, the “Predicted extent” value ([1]; Na2SO4, pH 3.5, from 2-8° C. data) was 2% and the “Predicted extent” value ([1]; Na2SO4, pH 3.5, from 40° C. data) was 31%. For the same compound, the “Predicted extent” value ([1]; Na2SO4, pH 3.5, from RT data) was 5%, the “Extent of degradation at 56 days” value ([1]; Na2SO4, pH 4.5, 2-8° C.) was 0.4% and the “Extent of degradation at 56 days” value ([1]; Na2SO4, pH 4.5, 40° C.) was 30%. For the same compound, the “Extent of degradation at 56 days” value ([1]; Na2SO4, pH 4.5, RT) was 51%, the “Predicted extent” value ([1]; Na2SO4, pH 4.5, from 2-8° C. data) was 22% and the “Predicted extent” value ([1]; Na2SO4, pH 4.5, from 40° C. data) was 98%. The “Predicted extent” value ([1]; Na2SO4, pH 4.5, from RT data) was >100%, the “Extent of degradation at 56 days” value ([1]; NaCl, pH 3.5, 2-8° C.) was 0.1% and the “Extent of degradation at 56 days” value ([1]; NaCl, pH 3.5, 40° C.) was 3.0%. The “Extent of degradation at 56 days” value ([1]; NaCl, pH 3.5, RT) was 0.3%, the “Predicted extent” value ([1]; NaCl, pH 3.5, from 2-8° C. data) was 4% and the “Predicted extent” value ([1]; NaCl, pH 3.5, from 40° C. data) was 10%. The “Predicted extent” value ([1]; NaCl, pH 3.5, from RT data) was 4%, the “Extent of degradation at 56 days” value ([1]; NaCl, pH 4.5, 2-8° C.) was 1.1% and the “Extent of degradation at 56 days” value ([1]; NaCl, pH 4.5, 40° C.) was 18%. The “Extent of degradation at 56 days” value ([1]; NaCl, pH 4.5, RT) was 1.8%, the “Predicted extent” value ([1]; NaCl, pH 4.5, from 2-8° C. data) was 56% and the “Predicted extent” value ([1]; NaCl, pH 4.5, from 40° C. data) was 58%. The “Predicted extent” value ([1]; NaCl, pH 4.5, from RT data) was 24%, the “pH of maximal stability” value ([2]; 5 mg/mL solutions, Example 6) was 3.0±0.5 and the “predicted total degradation over 2 years under refrigerated conditions” value ([2]; liquid formulations at pH 3.0) was 2-4%.
